Experimental data reported in patent publication US5710135A, “Anthracycline prodrugs, method for preparation as well as their use in selective chemotherapy” (Pharmachemie B.V., priority 1995, dated 1998).
Structures can show the parent of a compound that is named as a salt. Where two headings read alike, the source gives them in different places.

How the values were obtained:
OVCAR-3 cells = experiment: Anti-proliferative effect on OVCAR-3 cells (sulforhodamine B protein dye stain); assay type: cell-based; details: Homo sapiens
Protocol: The anti-proliferative effect of daunorubicin, doxorubicin and idarubicin, and of the prodrugs of examples 1 to 6 on OVCAR-3 cells was determined by measuring cell growth with a protein dye stain (H. J. Haisma et al. Br. J. Cancer 1992, 66, 474-478. Cells were harvested with 0.25 trypsin and 0.2% EDTA in PBS to obtain a single cell suspension and seeded in 96-wells tissue culture plates (2×10^6 cells/mL 10 μL/well, 3 wells per concentration). Drug or prodrug was added (10 μL/well) at different concentrations with a range of 3 or more logs. After incubation for 24 hours, 200 μL of culture medium (supplemented DMEM) was added and the cells were grown for another 72 hours. Cells were fixed with 25% trichloroacetic acid for 1 hour at 4° C. and washed with water. After staining the cells with 0.4% sulforhodamine B in 1% (v/v) acetic acid for 15 min. at room temperature, they were washed with 1% acetic acid and air-dried. The bound dye was solubilized with 10 mM unbuffered Tris and the absorbance was read at 492 nm. The absorbance was linear with cell concentrations from 1,000 to 200,000 cells/well. Separate wells were fixed 24 hours after seeding to substract background staining. The anti-proliferative effects were determined and expressed as IC50 values which are the (pro)drug concentrations that gave 50% growth inhibition when compared to control cell growth.

β-glucuronidase = target: T1, β-glucuronidase (Homo sapiens, UniProt P08236); experiment: Enzyme hydrolysis half-life with β-glucuronidase; assay type: biochemical; details: 100 μM prodrug, pH 6.8, 0.03 U/mL β-glucuronidase, 37° C.; read-out: T1/2 (min.) of enzyme hydrolysis
T1 sequence (P08236 23-651): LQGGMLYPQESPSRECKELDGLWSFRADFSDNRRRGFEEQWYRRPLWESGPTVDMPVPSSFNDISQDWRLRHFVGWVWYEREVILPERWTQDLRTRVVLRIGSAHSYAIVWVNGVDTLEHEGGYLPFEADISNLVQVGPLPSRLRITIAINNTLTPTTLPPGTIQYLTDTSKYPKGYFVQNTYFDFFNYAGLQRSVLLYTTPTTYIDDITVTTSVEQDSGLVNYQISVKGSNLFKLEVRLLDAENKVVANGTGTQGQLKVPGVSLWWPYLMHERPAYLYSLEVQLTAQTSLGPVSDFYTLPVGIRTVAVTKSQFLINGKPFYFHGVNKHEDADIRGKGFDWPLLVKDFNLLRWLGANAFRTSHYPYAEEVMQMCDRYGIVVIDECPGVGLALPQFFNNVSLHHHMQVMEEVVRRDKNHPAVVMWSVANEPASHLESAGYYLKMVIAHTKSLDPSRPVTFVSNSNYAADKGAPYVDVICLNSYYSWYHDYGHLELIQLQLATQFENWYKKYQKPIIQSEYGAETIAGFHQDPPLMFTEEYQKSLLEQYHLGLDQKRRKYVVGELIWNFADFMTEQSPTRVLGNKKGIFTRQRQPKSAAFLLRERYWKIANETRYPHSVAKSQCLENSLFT
Protocol: (§1) Half-lifes of enzyme hydrolysis were determined by incubating 100 μM prodrug at pH =6.8 with 0.03 U/mL β-glucuronidase or 0.3 U/mL β-glucosidase or β-galactosidase at 37° C.

[1] = Enzyme hydrolysis half-life with β-glucosidase; assay type: biochemical; details: 100 μM prodrug, pH 6.8, 0.3 U/mL β-glucosidase, 37° C.; read-out: T1/2 (min.) of enzyme hydrolysis
Protocol: as §1

[2] = OVCAR-3 cells, 24 hours incubation with (pro)drug, then grown another 72 hours, read-out: IC50 (μM), (pro)drug concentration giving 50% growth inhibition
[3] = OVCAR-3, read-out: IC50 (μM), (pro)drug concentration giving 50% growth inhibition

IC50 (OVCAR-3 cells; [2]) [µM] | half-life at 100 µM [1] [h] | SMILES | half-life at 100 µM (β-glucuronidase) [h] | IC50 (OVCAR-3 cells; [3]) [µM]
> 10 |  | COc1cccc2c1C(=O)c1c(O)c3c(c(O)c1C2=O)C[C@@](O)(C(=O)CO)C[C@@H]3O[C@H]1C[C@H](NC(=O)OCc2ccc(NC(=O)O[C@@H]3O[C@H](C(=O)O)[C@@H](O)[C@H](O)[C@H]3O)cc2)[C@H](O)[C@H](C)O1 [1b-para, N-[4-(doxorubicin-N-carbonyl-oxymethyl)phenyl] O-β-glucuronyl carbamate sodium salt] | 2.83 | 
> 1 |  | CC(=O)[C@]1(O)Cc2c(O)c3c(c(O)c2[C@@H](O[C@H]2C[C@H](NC(=O)OCc4ccc(NC(=O)O[C@@H]5O[C@H](C(=O)O)[C@@H](O)[C@H](O)[C@H]5O)cc4)[C@H](O)[C@H](C)O2)C1)C(=O)c1ccccc1C3=O [1c-para, N-[4-(idarubicin-N-carbonyl-oxymethyl)phenyl] O-β-glucuronyl carbamate sodium salt] | 2 | 
20 | > 8.33 | COc1cccc2c1C(=O)c1c(O)c3c(c(O)c1C2=O)C[C@@](O)(C(C)=O)C[C@@H]3O[C@H]1C[C@H](NC(=O)OCc2ccc(NC(=O)O[C@@H]3O[C@H](CO)[C@@H](O)[C@H](O)[C@H]3O)cc2)[C@H](O)[C@H](C)O1 [1d-para, N-[4-(daunorubicin-N-carbonyl-oxymethyl)phenyl] O-β-glucosyl carbamate] |  | 
 |  | COc1cccc2c1C(=O)c1c(O)c3c(c(O)c1C2=O)C[C@@](O)(C(C)=O)C[C@@H]3O[C@H]1C[C@H](N)[C@H](O)[C@H](C)O1 [12a, daunorubicin, reference compound] |  | 1.2
 |  | COc1cccc2c1C(=O)c1c(O)c3c(c(O)c1C2=O)C[C@@](O)(C(=O)CO)C[C@@H]3O[C@H]1C[C@H](N)[C@H](O)[C@H](C)O1 [12b, doxorubicin, reference compound] |  | 1
0.1 |  | CC(=O)[C@]1(O)Cc2c(O)c3c(c(O)c2[C@@H](O[C@H]2C[C@H](N)[C@H](O)[C@H](C)O2)C1)C(=O)c1ccccc1C3=O [12c, idarubicin, reference compound] |  | 

SMILES | IC50 (OVCAR-3 cells; [2]) [µM] | half-life at 100 µM [1] [h] | half-life at 100 µM (β-glucuronidase) [h] | IC50 (OVCAR-3 cells; [3]) [µM]
COc1cccc2c1C(=O)c1c(O)c3c(c(O)c1C2=O)C[C@@](O)(C(C)=O)C[C@@H]3O[C@H]1C[C@H](NC(=O)OCc2ccccc2NC(=O)O[C@@H]2O[C@H](C(=O)O)[C@@H](O)[C@H](O)[C@H]2O)[C@H](O)[C@H](C)O1 [1a-ortho, N-[2-(daunorubicin-N-carbonyl-oxymethyl)phenyl] O-β-glucuronyl carbamate sodium salt] | 20 |  | 2.08 | 
COc1cccc2c1C(=O)c1c(O)c3c(c(O)c1C2=O)C[C@@](O)(C(C)=O)C[C@@H]3O[C@H]1C[C@H](NC(=O)OCc2ccc(NC(=O)O[C@@H]3O[C@H](C(=O)O)[C@@H](O)[C@H](O)[C@H]3O)cc2)[C@H](O)[C@H](C)O1 [1a-para, N-[4-(daunorubicin-N-carbonyl-oxymethyl)phenyl] O-β-glucuronyl carbamate sodium salt] | 22 |  | 2.25 | 
